From EP0678516B1, “Preparation of 2-bromo-5-(2-bromo-2-nitrovinyl)-furan and its use as microcide” (CENTRO DE BIOACTIVOS QUIMICOS DE LA UNIVERSIDAD CENTRAL DE …, priority 1994, dated 1995)
Converted amounts (≈) assume the structure as drawn.

Columns and labels:
Assay in all cases: In vitro MIC (serial dilution)
Format in all cases: cell-based
Streptococcus pyogenes = system: Streptococcus pyogenes
Description: (§1) The antimicrobial sensitivity was first evaluated "in vitro" using the serial dilution method for bacteria and fungi. Other growth methods in agar cultures were included for other species. The liquid and solid mediums used were Mueller-Hinton, Tryptona Soya, Sabouraud Dextrosa, Sabouraud Maltose and other mediums in accordance with the cultural demands of the micro-organisms valued.
(§2) The temperature and incubation period was adjusted to conditions and characteristics of the micro-organisms used.
(§3) The Minimal Inhibitory Concentration (MIC) was calculated in terms of MIC50 and MIC90 in µg/ml.

Proteus vulgaris = system: Proteus vulgaris
Description: as §1, §2, §3

Leptospira canicola = conditions: Leptospira interrogans
Description: as §1, §2, §3

Candida pseudotropicalis = conditions: Kluyveromyces marxianus
Description: as §1, §2, §3

[1] = system: Klebsiella spp. (including K. pneumoniae)
Description: as §1, §2, §3

Bacillus subtilis = system: Bacillus subtilis
Description: as §1, §2, §3

Leptospira pomona = system: Leptospira pomona
Description: as §1, §2, §3

Epidermophyton floccasum = conditions: only one value given
Description: as §1, §2, §3

Serratia marcescens = system: Serratia marcescens
Description: as §1, §2, §3

Candida parasilosis = system: Candida parasilosis
Description: as §1, §2, §3

Staphylococcus aureus = system: Staphylococcus aureus
Description: as §1, §2, §3

Aspergillus sp. = system: Aspergillus sp.
Description: as §1, §2, §3

Corynebacterium pyogenes = conditions: Rhodococcus (subgen. Prescottella) equi
Description: as §1, §2, §3

Listeria monocytogenes = system: Listeria monocytogenes
Description: as §1, §2, §3

Proteus mirabilis = system: Proteus mirabilis
Description: as §1, §2, §3

Candida tropicalis = system: Candida tropicalis
Description: as §1, §2, §3

Pasteurella multocida = system: Pasteurella multocida
Description: as §1, §2, §3

Fusarium sp. = conditions: read-out: Minimal Inhibitory Concentration (MIC)
Description: as §1, §2, §3

Moracella bovis = system: Moracella bovis
Description: as §1, §2, §3

Salmonella enteritidis = conditions: Salmonella enterica
Description: as §1, §2, §3

Candida guilliermondi = system: Candida guilliermondi
Description: as §1, §2, §3

Proteus morganii = conditions: Morganella morganii
Description: as §1, §2, §3

Salmonella typhimurium = conditions: Salmonella enterica
Description: as §1, §2, §3

Pasteurella haemolytica = conditions: Mannheimia haemolytica
Description: as §1, §2, §3

Salmonella dublin = conditions: Salmonella enterica
Description: as §1, §2, §3

Sarcina lutea = conditions: Micrococcus luteus
Description: as §1, §2, §3

Pseudomonas aerguinosa = system: Pseudomonas aerguinosa
Description: as §1, §2, §3

Bacillus alvei = conditions: Paenibacillus alvei
Description: as §1, §2, §3

Salmonella choleraesuis = conditions: Salmonella enterica
Description: as §1, §2, §3

Escherichia coli = system: Escherichia coli
Description: as §1, §2, §3

Salmonella thyphi = system: Salmonella thyphi
Description: as §1, §2, §3

Pseudomonas maltophila = system: Pseudomonas maltophila
Description: as §1, §2, §3

Candida zeyfanoide = system: Candida zeyfanoide
Description: as §1, §2, §3

Candida stellatoidea = conditions: Candida albicans
Description: as §1, §2, §3

Streptococcus agalactiae = system: Streptococcus agalactiae
Description: as §1, §2, §3

Trichophyton rubrum = system: Trichophyton rubrum
Description: as §1, §2, §3

Microsporum canis = system: Microsporum canis
Description: as §1, §2, §3

Neisseria meningitidis = system: Neisseria meningitidis
Description: as §1, §2, §3

Salmonella oxford = system: Salmonella oxford
Description: as §1, §2, §3

Microsporum gypseum = conditions: Nannizzia gypsea
Description: as §1, §2, §3

Proteus rettgeri = conditions: Providencia rettgeri
Description: as §1, §2, §3

Candida albicans = system: Candida albicans
Description: as §1, §2, §3

Q: With O=[N+]([O-])C(Br)=Cc1ccc(Br)o1 [Product G-1, 2-bromo-5-(2-bromo-2-nitro-vinyl)-furan] as the molecule, how does the MIC50 (Streptococcus pyogenes) read?
A: 1.86 mg/L (≈ 6.26 µM)

Q: And the MIC90 (Streptococcus pyogenes)?
A: 4.42 mg/L (≈ 14.9 µM)

Q: And the MIC50 (Proteus vulgaris)?
A: 5.95 mg/L (≈ 20 µM)

Q: And the MIC90 (Proteus vulgaris)?
A: 19.8 mg/L (≈ 66.5 µM)

Q: And the MIC50 (Leptospira canicola)?
A: 9.36 mg/L (≈ 31.5 µM)

Q: What about the MIC90 (Leptospira canicola) of the same molecule?
A: 15.4 mg/L (≈ 51.8 µM)

Q: And the MIC50 (Candida pseudotropicalis)?
A: 1.92 mg/L (≈ 6.47 µM)

Q: And the MIC90 (Candida pseudotropicalis)?
A: 3.56 mg/L (≈ 12 µM)

Q: And the MIC50 [1]?
A: 11 mg/L (≈ 37 µM)

Q: And the MIC90 [1]?
A: 21.3 mg/L (≈ 71.9 µM)

Q: What about the MIC50 (Bacillus subtilis) of the same molecule?
A: 2.27 mg/L (≈ 7.65 µM)

Q: And the MIC90 (Bacillus subtilis)?
A: 5.08 mg/L (≈ 17.1 µM)

Q: What about the MIC50 (Leptospira pomona) of the same molecule?
A: 8.84 mg/L (≈ 29.8 µM)

Q: And the MIC90 (Leptospira pomona)?
A: 11.7 mg/L (≈ 39.3 µM)

Q: And the MIC50 (Epidermophyton floccasum)?
A: 12.5 mg/L (≈ 42.1 µM)

Q: And the MIC50 (Serratia marcescens)?
A: 5.03 mg/L (≈ 16.9 µM)

Q: What about the MIC90 (Serratia marcescens) of the same molecule?
A: 10.9 mg/L (≈ 36.9 µM)

Q: And the MIC50 (Candida parasilosis)?
A: 3.56 mg/L (≈ 12 µM)

Q: What about the MIC90 (Candida parasilosis) of the same molecule?
A: 6.93 mg/L (≈ 23.3 µM)

Q: And the MIC50 (Staphylococcus aureus)?
A: 5.91 mg/L (≈ 19.9 µM)

Q: What about the MIC90 (Staphylococcus aureus) of the same molecule?
A: 12.9 mg/L (≈ 43.6 µM)

Q: And the MIC50 (Aspergillus sp.)?
A: 16.2 mg/L (≈ 54.6 µM)

Q: What about the MIC90 (Aspergillus sp.) of the same molecule?
A: 48.3 mg/L (≈ 163 µM)

Q: And the MIC50 (Corynebacterium pyogenes)?
A: 3.56 mg/L (≈ 12 µM)

Q: And the MIC90 (Corynebacterium pyogenes)?
A: 5.59 mg/L (≈ 18.8 µM)

Q: What about the MIC50 (Listeria monocytogenes) of the same molecule?
A: 3.13 mg/L (≈ 10.5 µM)

Q: What about the MIC90 (Listeria monocytogenes) of the same molecule?
A: 5.44 mg/L (≈ 18.3 µM)

Q: And the MIC50 (Proteus mirabilis)?
A: 9.36 mg/L (≈ 31.5 µM)

Q: And the MIC90 (Proteus mirabilis)?
A: 24.1 mg/L (≈ 81.3 µM)

Q: And the MIC50 (Candida tropicalis)?
A: 2.78 mg/L (≈ 9.36 µM)

Q: And the MIC90 (Candida tropicalis)?
A: 5.29 mg/L (≈ 17.8 µM)

Q: What about the MIC50 (Pasteurella multocida) of the same molecule?
A: 3.59 mg/L (≈ 12.1 µM)

Q: And the MIC90 (Pasteurella multocida)?
A: 9.47 mg/L (≈ 31.9 µM)

Q: And the MIC (Fusarium sp.)?
A: 50 mg/L (≈ 168 µM)

Q: And the MIC50 (Moracella bovis)?
A: 2.63 mg/L (≈ 8.86 µM)

Q: And the MIC90 (Moracella bovis)?
A: 5.08 mg/L (≈ 17.1 µM)

Q: What about the MIC50 (Salmonella enteritidis) of the same molecule?
A: 6.86 mg/L (≈ 23.1 µM)

Q: What about the MIC90 (Salmonella enteritidis) of the same molecule?
A: 11.5 mg/L (≈ 38.7 µM)

Q: And the MIC50 (Candida guilliermondi)?
A: 1.92 mg/L (≈ 6.47 µM)

Q: And the MIC90 (Candida guilliermondi)?
A: 2.84 mg/L (≈ 9.57 µM)

Q: And the MIC50 (Proteus morganii)?
A: 3.13 mg/L (≈ 10.5 µM)

Q: What about the MIC90 (Proteus morganii) of the same molecule?
A: 10.2 mg/L (≈ 34.2 µM)

Q: And the MIC90 (Salmonella typhimurium; TYPHIMURIUM, read-out: MIC90 values)?
A: 17.7 mg/L (≈ 59.5 µM)

Q: What about the MIC50 (Salmonella typhimurium; Salmonella typhimurium) of the same molecule?
A: 7.43 mg/L (≈ 25 µM)

Q: What about the MIC50 (Pasteurella haemolytica) of the same molecule?
A: 3.72 mg/L (≈ 12.5 µM)

Q: What about the MIC90 (Pasteurella haemolytica) of the same molecule?
A: 5.63 mg/L (≈ 19 µM)

Q: What about the MIC50 (Salmonella dublin) of the same molecule?
A: 4.38 mg/L (≈ 14.8 µM)

Q: What about the MIC90 (Salmonella dublin) of the same molecule?
A: 5.73 mg/L (≈ 19.3 µM)

Q: And the MIC50 (Sarcina lutea)?
A: 1.56 mg/L (≈ 5.25 µM)

Q: What about the MIC90 (Sarcina lutea) of the same molecule?
A: 4.43 mg/L (≈ 14.9 µM)

Q: What about the MIC50 (Pseudomonas aerguinosa) of the same molecule?
A: 7.84 mg/L (≈ 26.4 µM)

Q: And the MIC90 (Pseudomonas aerguinosa)?
A: 15 mg/L (≈ 50.4 µM)

Q: And the MIC50 (Bacillus alvei)?
A: 2.21 mg/L (≈ 7.44 µM)

Q: And the MIC90 (Bacillus alvei)?
A: 5.08 mg/L (≈ 17.1 µM)

Q: And the MIC50 (Salmonella choleraesuis)?
A: 5.57 mg/L (≈ 18.8 µM)

Q: And the MIC90 (Salmonella choleraesuis)?
A: 10.5 mg/L (≈ 35.4 µM)

Q: What about the MIC50 (Escherichia coli) of the same molecule?
A: 7.53 mg/L (≈ 25.4 µM)

Q: What about the MIC90 (Escherichia coli) of the same molecule?
A: 16 mg/L (≈ 53.8 µM)

Q: What about the MIC50 (Salmonella thyphi) of the same molecule?
A: 2.5 mg/L (≈ 8.42 µM)

Q: What about the MIC90 (Salmonella thyphi) of the same molecule?
A: 10 mg/L (≈ 33.7 µM)

Q: And the MIC50 (Pseudomonas maltophila)?
A: 29.7 mg/L (≈ 100 µM)

Q: What about the MIC90 (Pseudomonas maltophila) of the same molecule?
A: 45.1 mg/L (≈ 152 µM)

Q: And the MIC50 (Candida zeyfanoide)?
A: 1.92 mg/L (≈ 6.47 µM)

Q: And the MIC90 (Candida zeyfanoide)?
A: 3.56 mg/L (≈ 12 µM)

Q: And the MIC50 (Candida stellatoidea)?
A: 1.92 mg/L (≈ 6.47 µM)

Q: What about the MIC90 (Candida stellatoidea) of the same molecule?
A: 3.56 mg/L (≈ 12 µM)

Q: What about the MIC50 (Streptococcus agalactiae) of the same molecule?
A: 1.99 mg/L (≈ 6.7 µM)

Q: And the MIC90 (Streptococcus agalactiae)?
A: 4.55 mg/L (≈ 15.3 µM)

Q: And the MIC50 (Trichophyton rubrum)?
A: 13.8 mg/L (≈ 46.5 µM)

Q: What about the MIC90 (Trichophyton rubrum) of the same molecule?
A: 24 mg/L (≈ 80.9 µM)

Q: What about the MIC50 (Microsporum canis) of the same molecule?
A: 7.91 mg/L (≈ 26.6 µM)

Q: What about the MIC90 (Microsporum canis) of the same molecule?
A: 40.6 mg/L (≈ 137 µM)

Q: And the MIC50 (Neisseria meningitidis)?
A: 1.84 mg/L (≈ 6.2 µM)

Q: And the MIC90 (Neisseria meningitidis)?
A: 3.47 mg/L (≈ 11.7 µM)

Q: And the MIC50 (Salmonella oxford)?
A: 4.42 mg/L (≈ 14.9 µM)

Q: What about the MIC90 (Salmonella oxford) of the same molecule?
A: 5.83 mg/L (≈ 19.6 µM)

Q: What about the MIC50 (Microsporum gypseum) of the same molecule?
A: 12.5 mg/L (≈ 42.1 µM)

Q: And the MIC90 (Microsporum gypseum)?
A: 20.8 mg/L (≈ 70 µM)

Q: And the MIC50 (Proteus rettgeri)?
A: 2.78 mg/L (≈ 9.36 µM)

Q: And the MIC90 (Proteus rettgeri)?
A: 9.92 mg/L (≈ 33.4 µM)

Q: What about the MIC50 (Candida albicans) of the same molecule?
A: 3.11 mg/L (≈ 10.5 µM)

Q: And the MIC90 (Candida albicans)?
A: 7.95 mg/L (≈ 26.8 µM)
